According to ChEMBL document CHEMBL5550125, “Molecular basis of N-glycan recognition by pradimicin a and its potential as a SARS-CoV-2 entry inhibitor” (Bioorg Med Chem, 2024):
Calls of active or inactive are those of the source. No cut-off for these calls is given here.

Columns and labels:
[1] = Binding affinity to Pradimicin A assessed as suppression of pradimicin A induced growth inhibition of Candida rugosa AJ14513 by measuring minimum antagonistic concentration measured after 48 hrs by visual analysis
[2] = Induction of Pradimicin-FA1 aggregation assessed as concentration required to induce 50% aggregation incubated for 15 mins and further incubated for 30 mins at room temperature by RP-HPLC analysis
[3] = Binding affinity to Pradimicin A assessed as pradimicin A/Ca2+/compound ternary complex formation by measuring molar ratio at 50 umol incubated at 60 degreeC for 15 mins and room temperature for 1 hr in presence of CaCl2 and further incubated at 4 degreeC for 1 hr by coprecipitation based 1H-NMR analysis; conditions: dose 50.0 µmol, time 2.25 hrs
Diutina rugosa = assay: Antifungal activity against Candida rugosa AJ14513 assessed as inhibition of fungal growth at 32 ug/ml measured after 48 hrs by visual analysis relative to control; assay type: functional
SARS-CoV-2 [4] = assay: Antiviral activity against SARS-CoV-2 JPN/NGS/SC-1/2020 infected in human Calu-3 cells assessed as inhibition of viral infection pretreated with cells for 1 hr followed by viral infection and measured after 3 days by immunofluorescence analysis; assay type: functional, organism-based; conditions: Severe acute respiratory syndrome coronavirus 2, JPN/NGS/SC-1/2020, Calu-3
Calu-3 = assay: Cytotoxicity against human Calu-3 cells infected with SARS-CoV-2 JPN/NGS/SC-1/2020 assessed as reduction in cell viability at 0.3 to 100 uM pretreated with cells for 1 hr followed by viral infection and measured after 3 days; assay type: toxicity, cell-based; conditions: calu-3, 73 h, dose 0.3-100 µM
SARS-CoV-2 [5] = assay: Antiviral activity against SARS-CoV-2 JPN/NGS/SC-1/2020 infected in human Calu-3 cells assessed as inhibition of viral infection at 6.25 uM pretreated with cells for 1 hr followed by viral infection and measured after 3 days by immunofluorescence analysis relative to control; assay type: functional, Severe acute respiratory syndrome coronavirus 2; design: scale not given: the % may be the effect or the level left; conditions: time 73 hrs
SARS-CoV-2 [6] = assay: Antiviral activity against SARS-CoV-2 JPN/NGS/SC-1/2020 infected in human Calu-3 cells assessed as inhibition of viral infection at 6.25 uM pretreated with cells for 1 hr in presence of (2S,3S,4S,5R,6R)-4-(((2S,3R,4S,5S,6R)-3,4,5-trihydroxy-6-(hydroxymethyl)tetrahydro-2H-pyran-2-yl)oxy)-6-((((2S,3S,4S,5S,6R)-3,4,5-trihydroxy-6-(hydroxymethyl)tetrahydro-2H-pyran-2-yl)oxy)methyl)tetrahydro-2H-pyran-2,3,5-triol followed by viral infection and measured after 3 days by immunofluorescence analysis; assay type: functional, organism-based; conditions: Severe acute respiratory syndrome coronavirus 2, time 73.0 hrs

SMILES	MAC [1]	AC50 [2]	also measured
CO[C@H]1O[C@H](CO)[C@@H](O[C@@H]2O[C@H](CO)[C@H](O)[C@H](O)[C@H]2O)[C@H](O)[C@@H]1NC(C)=O	> 64 mM	> 10 mM	–
CO[C@H]1O[C@H](CO[C@H]2O[C@H](CO)[C@@H](O)[C@H](O)[C@@H]2O)[C@@H](O)[C@H](O[C@@H]2O[C@H](CO)[C@@H](O)[C@H](O)[C@H]2O)[C@@H]1O	16 mM	> 10 mM	–
CO[C@H]1O[C@H](CO[C@H]2O[C@H](CO)[C@@H](O)[C@H](O)[C@@H]2O[C@H]2O[C@H](CO)[C@@H](O)[C@H](O)[C@@H]2O)[C@@H](O)[C@H](O[C@H]2O[C@H](CO)[C@H](O)[C@@H](O)[C@@H]2O[C@@H]2O[C@H](CO)[C@@H](O)[C@H](O)[C@H]2O)[C@@H]1O	1 mM	0.07 mM	–
CO[C@@H]1O[C@H](CO[C@]2(C(=O)O)C[C@H](O)[C@@H](NC(C)=O)[C@H]([C@@H](O)[C@H](O)CO)O2)[C@H](O)[C@H](O)[C@H]1O	> 64 mM	> 10 mM	–
CO[C@H]1O[C@H](CO)[C@@H](O)[C@H](O)[C@@H]1O[C@@H]1O[C@H](CO)[C@@H](OC)[C@H](O)[C@@H]1NC(C)=O	> 64 mM	> 10 mM	–
OC[C@H]1O[C@H](OC[C@H]2O[C@H](O)[C@@H](O)[C@@H](O[C@@H]3O[C@H](CO)[C@@H](O)[C@H](O)[C@H]3O)[C@@H]2O)[C@@H](O)[C@@H](O)[C@@H]1O	1 mM	0.06 mM	Ratio [3]: 0.52
CO[C@H]1O[C@H](CO)[C@@H](O)[C@H](O)[C@H]1O	–	–	Ratio [3]: 0.05
CO[C@H]1O[C@H](CO[C@H]2O[C@H](CO)[C@@H](O)[C@H](O)[C@H]2O)[C@@H](O)[C@H](O[C@@H]2O[C@H](CO)[C@@H](O)[C@H](O)[C@H]2O)[C@@H]1O	16 mM	> 10 mM	–
CO[C@H]1O[C@H](CO)[C@@H](O)[C@H](O)[C@@H]1O[C@@H]1O[C@H](CO)[C@@H](O)[C@H](O)[C@@H]1NC(C)=O	> 64 mM	> 10 mM	–
CO[C@H]1O[C@H](CO[C@H]2O[C@H](CO)[C@@H](O)[C@H](O)[C@@H]2OC)[C@@H](O)[C@H](O[C@@H]2O[C@H](CO)[C@@H](O)[C@H](O)[C@H]2OC)[C@@H]1O	> 64 mM	> 10 mM	–
CO[C@H]1O[C@H](CO)[C@@H](O)[C@H](O)[C@@H]1O[C@H]1O[C@H](CO)[C@@H](O)[C@H](O)[C@@H]1O	16 mM	> 10 mM	–
CN[C@@H]1[C@H](O[C@@H]2OC[C@@H](O)[C@H](O)[C@H]2O)[C@@H](O)[C@H](O[C@H]2c3cc(C)c(C(=O)N[C@H](C)C(=O)O)c(O)c3-c3c(cc4c(c3O)C(=O)c3cc(OC)cc(O)c3C4=O)[C@@H]2O)O[C@@H]1C [PRADIMICIN A]	–	–	inhibition at 32 µg/mL (Diutina rugosa): 100%; IC50 (SARS-CoV-2 [4]): 1200 nM; Activity (Calu-3): Non-Toxic; Activity (SARS-CoV-2 [5]): ~100%; Activity (SARS-CoV-2 [6]): inactive
CO[C@H]1O[C@H](CO)[C@@H](O[C@@H]2O[C@H](CO)[C@H](OC)[C@H](O)[C@H]2NC(C)=O)[C@H](O)[C@@H]1NC(C)=O	> 64 mM	> 10 mM	–
CO[C@H]1O[C@H](CO)[C@@H](O)[C@H](O)[C@@H]1O	16 mM	5 mM	Ratio [3]: 0.96
